# According to patent US12077503B2, “Substituted cyclic amides and their use as herbicides” (FMC CORPORATION, priority 2015, dated 2024):
# Like-named read-outs stand apart in the source and are kept apart here.
# Experiments:
# Type in all cases: in vivo
# [1] = tested on: sedge, umbrella (small-flower umbrella sedge, Cyperus difformis); assay: Test B flooded paddy test; settings: Cyperus difformis, Flood, 250 g ai/ha
# How it was run: (§1)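 Percent control, visually estimated after 13–15 d in the greenhouse on a 0–100 basis, compares treated pots with untreated ones; compound was put into paddy water 3 cm above the soil when plants had two leaves.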
# rice (Oryra sativa) = assay: Test B flooded paddy test; settings: Oryza sativa, 250 g ai/ha, Flood
# How it was run: as §1
# [2] = tested on: barnyardgrass (Echinochloa crus-galli); assay: Test B flooded paddy test; settings: Echinochloa crus-galli, 250 g ai/ha, Flood
# How it was run: as §1
# [3] = tested on: ducksalad (Heteranthera limosa); assay: Test B flooded paddy test; settings: Heteranthera limosa, 250 g ai/ha, Flood
# How it was run: as §1
# corn (Zea mays) = assay: Test A postemergence; settings: Zea mays, post-emergence, 240 h; for plant injury at 125 g/ha: 125 g ai/ha, read-out: Corn plant response rating (0 to 100 scale); for Corn plant response rating (crop injury, 0 = no effect, 100 = complete kill) at 500 g/ha: 500 g ai/ha, visual injury, 0 to 100 scale (0 no effect, 100 complete control), approx. 10 d
# How it was run: (§2)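 Treatment is preemergence as a directed soil spray after planting, or postemergence at the one- to two-leaf stage, with test chemical in a non-phytotoxic solvent mixture plus surfactant. Plants stay in the greenhouse about 10 d before visual injury scoring on a 0 to 100 scale versus untreated controls.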
# Kochia (Kochia scoparia) = assay: Test A postemergence; settings: Bassia scoparia, post-emergence, 240 h; for pest or weed control at 125 g/ha: 125 g ai/ha, read-out: Kochia plant response rating (0 to 100 scale); for pest or weed control at 500 g/ha: 500 g ai/ha, visual injury, 0 to 100 scale (0 no effect, 100 complete control), approx. 10 d, read-out: Plant response rating, Kochia
# How it was run: as §2
# [4] = tested on: barnyardgrass (Echinochloa crus-galli); assay: Test A postemergence; settings: Echinochloa crus-galli, post-emergence, 240 h; for pest or weed control at 125 g/ha: 125 g ai/ha; for pest or weed control at 500 g/ha: 500 g ai/ha, visual injury, 0 to 100 scale (0 no effect, 100 complete control), approx. 10 d, read-out: Plant response rating, Barnyardgrass
# How it was run: as §2
# [5] = tested on: ryegrass, Italian (Italian ryegrass, Lolium multiflorum); assay: Test A postemergence; settings: Lolium multiflorum, post-emergence, 240 h; for pest or weed control at 125 g/ha: 125 g ai/ha, read-out: Ryegrass, Italian plant response rating (0 to 100 scale); for pest or weed control at 500 g/ha: 500 g ai/ha, visual injury, 0 to 100 scale (0 no effect, 100 complete control), approx. 10 d, read-out: Plant response rating, Ryegrass, Italian
# How it was run: as §2
# [6] = tested on: pigweed (Amaranthus retroflexus); assay: Test A postemergence; settings: Amaranthus retroflexus, post-emergence, 240 h; for pest or weed control at 125 g/ha: 125 g ai/ha, read-out: Pigweed plant response rating (0 to 100 scale); for pest or weed control at 500 g/ha: 500 g ai/ha, visual injury, 0 to 100 scale (0 no effect, 100 complete control), approx. 10 d, read-out: Plant response rating, Pigweed
# How it was run: as §2
# [7] = tested on: ragweed (common ragweed, Ambrosia elatior); assay: Test A postemergence; settings: Ambrosia artemisiifolia, post-emergence, 240 h; for pest or weed control at 125 g/ha: 125 g ai/ha, read-out: Ragweed plant response rating (0 to 100 scale); for pest or weed control at 500 g/ha: 500 g ai/ha, visual injury, 0 to 100 scale (0 no effect, 100 complete control), approx. 10 d, read-out: Plant response rating, Ragweed
# How it was run: as §2
# [8] = tested on: Galium (catchweed bedstraw, Galium aparine); assay: Test A postemergence; settings: Galium, post-emergence, 240 h; for pest or weed control at 125 g/ha: 125 g ai/ha, read-out: Galium plant response rating (0 to 100 scale); for pest or weed control at 500 g/ha: 500 g ai/ha, visual injury, 0 to 100 scale (0 no effect, 100 complete control), approx. 10 d, read-out: Plant response rating, Galium
# How it was run: as §2
# [9] = tested on: blackgrass (Alopecurus myosuroides); assay: Test A postemergence; settings: Alopecurus myosuroides, post-emergence, 240 h; for pest or weed control at 125 g/ha: 125 g ai/ha, read-out: Blackgrass plant response rating (0 to 100 scale); for pest or weed control at 500 g/ha: 500 g ai/ha, visual injury, 0 to 100 scale (0 no effect, 100 complete control), approx. 10 d, read-out: Plant response rating, Blackgrass
# How it was run: as §2
# [10] = tested on: wheat (Triticum aestivum); assay: Test A postemergence; settings: Triticum aestivum, post-emergence, 240 h, Postemergence; for plant injury at 125 g/ha: 125 g ai/ha, visual rating about 10 d after treatment, read-out: Wheat plant response rating (0 to 100 scale); for plant injury at 500 g/ha: 500 g ai/ha, visual injury, 0 to 100 scale (0 no effect, 100 complete control), approx. 10 d, read-out: Plant response rating, Wheat
# How it was run: as §2
# [11] = tested on: giant foxtail (Setaria faberii); assay: Test A postemergence; settings: Setaria faberi, post-emergence, 240 h; for pest or weed control at 125 g/ha: 125 g ai/ha, read-out: Foxtail, Giant plant response rating (0 to 100 scale); for pest or weed control at 500 g/ha: 500 g ai/ha, visual injury, 0 to 100 scale (0 no effect, 100 complete control), approx. 10 d, read-out: Plant response rating, Foxtail, Giant
# How it was run: as §2
# [12] = 360 h, visually evaluated after 13 to 15 d, read-out: Plant response rating, Sedge, Umbrella (0 to 100 scale where 0 is no effect and 100 is complete control)
# [13] = 0 to 100 scale where 0 is no effect and 100 is complete control, read-out: Rice plant response rating
# [14] = 0 to 100 scale where 0 is no effect and 100 is complete control, read-out: Barnyardgrass plant response rating
# [15] = 0 to 100 scale where 0 is no effect and 100 is complete control, read-out: Ducksalad plant response rating
# [16] = Postemergence, visual rating about 10 d after treatment
# [17] = Postemergence, visual rating about 10 d after treatment, read-out: Barnyardgrass plant response rating (0 to 100 scale, 0 no effect, 100 complete control)
# [18] = postemergence, visual injury vs untreated controls after approx. 10 d, 0 = no effect, 100 = complete control
SMILES,"pest or weed control at 250 g/ha [1, 12]",pest or weed control at 250 g/ha (rice (Oryra sativa); [13]),"pest or weed control at 250 g/ha [2, 14]","pest or weed control at 250 g/ha [3, 15]",plant injury at 125 g/ha (corn (Zea mays); [16]),"Corn plant response rating (crop injury, 0 = no effect, 100 = complete kill) at 500 g/ha (corn (Zea mays); Postemergence)",pest or weed control at 125 g/ha (Kochia (Kochia scoparia); [16]),pest or weed control at 500 g/ha (Kochia (Kochia scoparia); Postemergence),"pest or weed control at 125 g/ha [4, 17]",pest or weed control at 500 g/ha ([4]; Postemergence),"pest or weed control at 125 g/ha [5, 16]",pest or weed control at 500 g/ha ([5]; Postemergence),"pest or weed control at 125 g/ha [6, 16]",pest or weed control at 500 g/ha ([6]; Postemergence),"pest or weed control at 125 g/ha [7, 16]",pest or weed control at 500 g/ha ([7]; Postemergence),pest or weed control at 500 g/ha ([8]; Postemergence),pest or weed control at 500 g/ha ([9]; Postemergence),plant injury at 500 g/ha [10],pest or weed control at 500 g/ha ([11]; Postemergence),also measured
CS(=O)(=O)c1ccccc1NC(=O)[C@H]1C(=O)NC[C@@H]1c1ccc2c(c1)CCO2 [Compound 1320],0%,0%,0%,50%,0%,0%,0%,0%,0%,50%,0%,0%,0%,0%,0%,0%,40%,0%,0%,20%,"pest or weed control at 125 g/ha [8, 16]: 30%; pest or weed control at 125 g/ha [9, 16]: 0%; plant injury at 125 g/ha [10]: 0%; pest or weed control at 125 g/ha [11, 16]: 0%"
O=C1NC[C@H](c2cnc(C(F)(F)F)nc2)[C@H]1C(=O)Nc1cccc(F)c1F [Compound 1382],20%,–,–,–,0%,0%,0%,0%,0%,80%,0%,0%,0%,0%,0%,0%,30%,0%,0%,70%,"pest or weed control at 250 g/ha (rice (Oryra sativa); 360 h, visually evaluated after 13 to 15 d, read-out: Plant response rating, Rice (0 to 100 scale where 0 is no effect and 100 is complete control)): 0%; pest or weed control at 250 g/ha ([2]; 360 h, visually evaluated after 13 to 15 d, read-out: Plant response rating, Barnyardgrass (0 to 100 scale where 0 is no effect and 100 is complete control)): 30%; pest or weed control at 250 g/ha ([3]; 360 h, visually evaluated after 13 to 15 d, read-out: Plant response rating, Ducksalad (0 to 100 scale where 0 is no effect and 100 is complete control)): 90%; pest or weed control at 125 g/ha [8, 16]: 0%; pest or weed control at 125 g/ha [9, 16]: 0%; plant injury at 125 g/ha [10]: 0%; pest or weed control at 125 g/ha [11, 16]: 0%"
CSc1ccccc1NC(=O)[C@H]1C(=O)NC[C@@H]1c1ccc2c(c1)OCO2 [Compound 1257],–,0%,20%,0%,–,0%,–,0%,–,0%,–,0%,–,0%,–,0%,0%,0%,0%,0%,"pest or weed control at 250 g/ha ([1]; 0 to 100 scale where 0 is no effect and 100 is complete control, read-out: Sedge, Umbrella plant response rating): 0%; plant injury at 125 g/ha (corn (Zea mays); [18]): 0%; pest or weed control at 125 g/ha (Kochia (Kochia scoparia); [18]): 0%; pest or weed control at 125 g/ha ([4]; postemergence, visual injury vs untreated controls after approx. 10 d, 0 = no effect, 100 = complete control, read-out: Barnyardgrass plant response rating (0 to 100 scale)): 0%; pest or weed control at 125 g/ha [5, 18]: 0%; pest or weed control at 125 g/ha [6, 18]: 0%; pest or weed control at 125 g/ha [7, 18]: 0%; pest or weed control at 125 g/ha [8, 18]: 0%; pest or weed control at 125 g/ha [9, 18]: 0%; pest or weed control at 125 g/ha [11, 18]: 0%"
